Several values for one entry are separate records, joined by “and”; a condition that tells them apart may be missing. Equal values may be shown once.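 In this assay, cells in 96-well plates receive the compound at five concentrations for 48 hours. Endpoints are linearly interpolated between the surrounding concentrations. GI50: concentration for 50% inhibition of growth. TGI marks complete inhibition of growth.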
Columns and labels:
Experiment in all cases: inhibition of tumour cell growth, NCI panel, 48 h
CCRF-CEM leukemia = system: CCRF-CEM leukemia
DMS 273 small cell lung = system: DMS 273 small cell lung
M14 melanoma = system: M14 melanoma
SF-539 CNS = system: SF-539 CNS
KM20L2 colon = system: KM20L2 colon
SNB-75 CNS = system: SNB-75 CNS
SNB-19 CNS = system: SNB-19 CNS
K-562 leukemia = system: K-562 leukemia
HOP-62 NSCLC = system: HOP-62 NSCLC
786-0 renal = system: 786-0 renal
NCI-H226 lung = system: NCI-H226 lung
LXFL 529 NSCLC = system: LXFL 529 NSCLC
SK-MEL-28 melanoma = system: SK-MEL-28 melanoma
U251 CNS = system: U251 CNS
HL-60(TB) leukemia = system: HL-60(TB) leukemia
OVCAR-4 ovarian = system: OVCAR-4 ovarian
RXF 393 renal = system: RXF 393 renal
HCT-116 colon = system: HCT-116 colon
NCI-H23 lung = system: NCI-H23 lung
HCC-2998 colon = system: HCC-2998 colon
DLD-1 colon = system: DLD-1 colon
MOLT-4 leukemia = system: MOLT-4 leukemia
NCI-H522 lung = system: NCI-H522 lung
LOX IMVI melanoma = system: LOX IMVI melanoma
NCI-H460 lung = system: NCI-H460 lung
RPMI-8226 leukemia = system: RPMI-8226 leukemia
SNB-78 CNS = system: SNB-78 CNS
COLO 205 colon = system: COLO 205 colon
UACC-257 melanoma = system: UACC-257 melanoma
MALME-3M melanoma = system: MALME-3M melanoma
KM12 colon = system: KM12 colon
M19-MEL melanoma = system: M19-MEL melanoma
HT29 colon = system: HT29 colon
HOP-92 NSCLC = system: HOP-92 NSCLC
OVCAR-5 ovarian = system: OVCAR-5 ovarian
UACC-62 melanoma = system: UACC-62 melanoma
SK-MEL-2 melanoma = system: SK-MEL-2 melanoma
OVCAR-3 ovarian = system: OVCAR-3 ovarian
SF-268 CNS = system: SF-268 CNS
IGROV1 ovarian = system: IGROV1 ovarian
SF-295 CNS = system: SF-295 CNS
A498 renal = system: A498 renal
SK-OV-3 ovarian = system: SK-OV-3 ovarian
ACHN renal = system: ACHN renal
UO-31 renal = system: UO-31 renal
PC-3 prostate = system: PC-3 prostate
NCI/ADR-RES ovarian = system: NCI/ADR-RES ovarian
HCT-15 colon = system: HCT-15 colon
SR leukemia = system: SR leukemia
T-47D breast = system: T-47D breast
BT-549 breast = system: BT-549 breast
CAKI-1 renal = system: CAKI-1 renal
OVCAR-8 ovarian = system: OVCAR-8 ovarian
A549 NSCLC = system: A549 NSCLC
DU-145 prostate = system: DU-145 prostate
MDA-MB-231 breast = system: MDA-MB-231 breast
MDA-N = system: MDA-N
SN12C renal = system: SN12C renal
SW-620 colon = system: SW-620 colon
HS 578T breast = system: HS 578T breast
EKVX NSCLC = system: EKVX NSCLC
SK-MEL-5 melanoma = system: SK-MEL-5 melanoma
MDA-MB-435 = system: MDA-MB-435
TK-10 renal = system: TK-10 renal
MCF7 breast = system: MCF7 breast

## Cc1cnc(-c2ccccc2)o1
CCRF-CEM leukemia
  TGI: > 100 µM
DMS 273 small cell lung
  TGI: > 100 µM
M14 melanoma
  TGI: > 100 µM
SF-539 CNS
  TGI: > 100 µM
KM20L2 colon
  TGI: > 100 µM
SNB-75 CNS
  TGI: > 100 µM
SNB-19 CNS
  TGI: > 100 µM
K-562 leukemia
  TGI: > 100 µM
HOP-62 NSCLC
  TGI: > 100 µM
786-0 renal
  TGI: > 100 µM
NCI-H226 lung
  TGI: > 100 µM
LXFL 529 NSCLC
  TGI: > 100 µM
SK-MEL-28 melanoma
  TGI: > 100 µM
U251 CNS
  TGI: > 100 µM
HL-60(TB) leukemia
  TGI: > 100 µM
OVCAR-4 ovarian
  TGI: > 100 µM
RXF 393 renal
  TGI: > 100 µM
HCT-116 colon
  TGI: > 100 µM
NCI-H23 lung
  TGI: > 100 µM
HCC-2998 colon
  TGI: > 100 µM
DLD-1 colon
  TGI: > 100 µM
MOLT-4 leukemia
  TGI: > 100 µM
NCI-H522 lung
  TGI: > 100 µM
LOX IMVI melanoma
  TGI: > 100 µM
NCI-H460 lung
  TGI: > 100 µM
RPMI-8226 leukemia
  TGI: > 100 µM
SNB-78 CNS
  TGI: > 100 µM

## CCN(CC)CCN1C(=O)CC2[C@@H]3CCc4cc(OC)ccc4C3CC[C@]2(C)C1=O (some centres undefined)
CCRF-CEM leukemia
  TGI: 39.2 µM
COLO 205 colon
  TGI: 39.1 µM
UACC-257 melanoma
  TGI: 30.2 µM
M14 melanoma
  TGI: 33.1 µM
SF-539 CNS
  TGI: 19.5 µM
MALME-3M melanoma
  TGI: 33.4 µM
KM20L2 colon
  TGI: 46 µM
SNB-75 CNS
  TGI: > 100 µM
SNB-19 CNS
  TGI: > 100 µM
K-562 leukemia
  TGI: 36.1 µM
HOP-62 NSCLC
  TGI: 54.2 µM
KM12 colon
  TGI: > 100 µM
M19-MEL melanoma
  TGI: 35.8 µM
786-0 renal
  TGI: 31.1 µM
HT29 colon
  TGI: 41.4 µM
HOP-92 NSCLC
  TGI: > 100 µM
OVCAR-5 ovarian
  TGI: > 100 µM
UACC-62 melanoma
  TGI: 36 µM
SK-MEL-2 melanoma
  TGI: 37.4 µM
LXFL 529 NSCLC
  TGI: 30.9 µM
OVCAR-3 ovarian
  TGI: > 100 µM
SK-MEL-28 melanoma
  TGI: 33.1 µM
U251 CNS
  TGI: > 100 µM
SF-268 CNS
  TGI: > 100 µM
IGROV1 ovarian
  TGI: > 100 µM
HL-60(TB) leukemia
  TGI: 36.7 µM
SF-295 CNS
  TGI: 37.6 µM
OVCAR-4 ovarian
  TGI: > 100 µM
A498 renal
  TGI: > 100 µM
SK-OV-3 ovarian
  TGI: > 100 µM
RXF 393 renal
  TGI: 92.3 µM
ACHN renal
  TGI: > 100 µM
NCI-H23 lung
  TGI: > 100 µM
NCI-H522 lung
  TGI: 53.7 µM
UO-31 renal
  TGI: 64.6 µM
NCI-H460 lung
  TGI: > 100 µM
RPMI-8226 leukemia
  TGI: 66 µM
SNB-78 CNS
  TGI: > 100 µM

## S=C(S)N1CCCCC1
COLO 205 colon
  TGI: 82.7 µM
UACC-257 melanoma
  GI50: 30.7 µM and 38 µM
  TGI: > 406 µM
M14 melanoma
  GI50: 10.9 µM
  TGI: 85.7 µM and 29.7 µM
SF-539 CNS
  GI50: 32.3 µM and 22.7 µM
  TGI: 83.3 µM and > 406 µM
PC-3 prostate
  TGI: 70.4 µM and > 406 µM
MALME-3M melanoma
  GI50: 40.6 µM and 129 µM
  TGI: 64.8 µM and > 406 µM
SNB-75 CNS
  GI50: 28 µM
  TGI: > 406 µM
SNB-19 CNS
  TGI: > 406 µM
K-562 leukemia
  GI50: > 406 µM
NCI/ADR-RES ovarian
  GI50: 20.8 µM
  TGI: 93.5 µM and 173 µM
HCT-15 colon
  GI50: 25.3 µM and 22.8 µM
  TGI: 177 µM
HOP-62 NSCLC
  GI50: 17 µM
  TGI: > 406 µM
KM12 colon
  GI50: 50.2 µM and 51.8 µM
  TGI: 137 µM
M19-MEL melanoma
  TGI: > 46.9 µM
786-0 renal
  GI50: 12.9 µM and 64.5 µM
  TGI: > 406 µM
SR leukemia
  GI50: 17.5 µM and 80.7 µM
  TGI: 67 µM and > 406 µM
NCI-H226 lung
  GI50: 42.4 µM
  TGI: > 406 µM
T-47D breast
  GI50: 45.7 µM
  TGI: 299 µM
HOP-92 NSCLC
  GI50: 24.9 µM and 116 µM
  TGI: > 406 µM
BT-549 breast
  TGI: > 406 µM
OVCAR-5 ovarian
  TGI: > 406 µM
CAKI-1 renal
  GI50: 19.9 µM
  TGI: 99.1 µM and > 406 µM
UACC-62 melanoma
  GI50: 19.8 µM
  TGI: > 46.3 µM and 82.5 µM
OVCAR-8 ovarian
  GI50: 22.9 µM and 15.9 µM
  TGI: > 406 µM
SK-MEL-2 melanoma
  GI50: 28.2 µM and 54.1 µM
  TGI: 84.6 µM and 179 µM
A549 NSCLC
  GI50: 71.6 µM
  TGI: > 406 µM
DU-145 prostate
  TGI: > 406 µM
OVCAR-3 ovarian
  TGI: > 406 µM
SK-MEL-28 melanoma
  GI50: 89 µM
  TGI: > 406 µM
U251 CNS
  GI50: 60.3 µM
  TGI: > 406 µM
SF-268 CNS
  GI50: 26 µM and 106 µM
  TGI: > 406 µM
IGROV1 ovarian
  GI50: 55.2 µM and 10.5 µM
  TGI: 100 µM
MDA-MB-231 breast
  TGI: > 406 µM
MDA-N
  GI50: 70.4 µM
  TGI: 46.6 µM
SF-295 CNS
  GI50: 34 µM and 39.3 µM
  TGI: > 406 µM
SN12C renal
  GI50: 89.7 µM and 49.8 µM
  TGI: > 406 µM
OVCAR-4 ovarian
  GI50: 51 µM
  TGI: 295 µM
SW-620 colon
  GI50: 21.6 µM and 18.4 µM
  TGI: 66.1 µM and 63.6 µM
HS 578T breast
  TGI: > 406 µM
EKVX NSCLC
  GI50: 46.5 µM
  TGI: > 406 µM
SK-MEL-5 melanoma
  TGI: 81.5 µM
SK-OV-3 ovarian
  TGI: 353 µM
RXF 393 renal
  TGI: > 406 µM
MDA-MB-435
  GI50: 20.4 µM
  TGI: 67.9 µM and > 406 µM
HCT-116 colon
  GI50: 12 µM
  TGI: 26.2 µM and 45.3 µM
ACHN renal
  GI50: 19.6 µM and 54.3 µM
  TGI: > 406 µM
NCI-H23 lung
  GI50: 36.6 µM
  TGI: > 406 µM
NCI-H522 lung
  GI50: 28 µM
UO-31 renal
  GI50: 20.9 µM
  TGI: 55.5 µM and 398 µM
LOX IMVI melanoma
  GI50: 11.2 µM and 8.18 µM
  TGI: 26.6 µM and 16.3 µM
NCI-H460 lung
  TGI: 85 µM
RPMI-8226 leukemia
  TGI: 68.3 µM and > 406 µM
TK-10 renal
  TGI: > 406 µM
MCF7 breast
  TGI: 88.3 µM

Reference: PubChem BioAssay (NCI)
